Results published in patent US20240182333A1, “METHODS OF TREATING COMPOUNDS USING VISIBLE LIGHT-ENABLED ACTIVATION OF PEROXYDISULFATE” (THE TEXAS A&M UNIVERSITY SYSTEM, priority 2022, published 2024).

Assays:
[1] = Decay of PDS in dark and under visible light; assay type: physicochemical; conditions: for PDS decayed: within 240 min, regardless of the phosphate
Description: (§1) USA) 10 cm away from the lamp. The tubes in the dark treatments were covered with aluminum foil. To further confirm the PDS activation by visible light, experiments were also conducted with a UV filter film covering the simulated sunlight lamp to eliminate the effect of UV light. 1.0 mL of sample was withdrawn from each tube at different elapsed times (t=0, 1, 2, 3, 4, 5, 10, 20, 30, 60, 90, 120, and 240 min) and immediately quenched by 20 μL of 5.0 M sodium thiosulfate. The concentrations of all compositions in collected samples were measured with a Dionex UltiMate 3000 high-performance liquid chromatograph (HPLC) (Sunnyvale, USA). The settings of HPLC are provided in Example 1. The change in the concentration of PDS under different conditions was determined spectrophotometrically via an oxidation decolorization method and a modified iodometric titration method, respectively. The initial and final pH in each tube were measured with an Accumet AE150 pH meter (Westford, USA).
In order to verify whether PDS was directly activated by visible light, the impacts of solution constituents were examined. Because 10 mM phosphate buffer was added to control the initial pH to 7.0 to take into account of the typical pH of natural waters, the impact of phosphate buffer on the decay of PDS was investigated. […] Approximately 20% and 90% of PDS decayed within 240 min in dark and under visible light, respectively, regardless of the phosphate.

[2] = Quenching, anoxic and D2O experiments of ATZ degradation by PDS; assay type: physicochemical
Description: In order to identify the main reactive species involved in the degradation of ATZ by PDS under light and in dark, four quenchers were added in the beginning of the reactions to scavenge possible reactive species. The concentration of MeOH, tert-butanol (TBA), and L-histidine (L-his) was 0.5 M, and the concentration of superoxide dismutase (SOD) was 50 U·ml^−1. To analyze the impact of oxygen, purified N2 gas was used to purge the system for 10 min before the quenching experiments. All tubes were capped and then sealed with parafilm to maintain an anoxic environment throughout the reaction. The ATZ concentrations in the samples taken at various time points (t=0, 5, 10, 30, 60, 120, and 240 min) were measured using HPLC. The degradation of ATZ was also repeated with D2O as the solvent for phosphate buffer with the same experimental setups.

[3] = Degradation of compounds by PDS in dark and under visible light (HPLC); assay type: physicochemical; conditions: for pseudo-first-order rate constant kobs of ATZ degradation: [ATZ]0=10.0 μM, [PDS]0=5.0 mM, pH0=7.0, 25° C.
Description: Various reactions were carried out in 40 mL glass tubes with constant stirring at 300 rpm at 25±0.5° C. The temperature of solutions was monitored using a thermometer throughout the experiments. The initial concentration of atrazine (ATZ) was 10.0 uM, and the initial concentration of PDS was 5.0 mM. The irradiation fluxes emitted from the lamp and received by the solutions were measured with a LS125 UV light meter (Linshang Technology, Shenzhen, China) and a Solar Light PMA2100 radiometer (Solar Light Company, Philadelphia,
as §1
A simulated sunlight lamp was used as the light source in the instant example. The light fluxes that reaction solutions received in glass vials contained 39.8±0.5×10^−3 W/cm^2 of visible light in the wavelength (λ) range of 400-700 nm. The fluxes in the UV ranges contained 8.1±0.2×10^−6 W/cm^2 of UV-A (λ=315-400 nm) and 2.5±0.4×10^−6 W/cm^2 of UV-B (λ=280-315 nm), respectively. The UV-C flux (λ=230-280 nm) was negligible. Based on the flux measurement, UV light only accounted for <0.03% of the total light flux, and thus the light source utilized herein represents almost exclusively the visible light. The chemistry of PDS with visible light irradiation (PDS Light) and without (PDS Dark) was explored using six common herbicides and pharmaceuticals, namely atrazine (ATZ), sulfamethoxazole (SMX), trimethoprim (TMP), sulfadimethoxine (SDM), ibuprofen (IBP), and carbamazepine (CMZ) (FIGS. 1A-1F).

[4] = reported; cited from earlier work

Row | Compound | rate constant for R1 (photolysis of PDS by light) ([1]; based on the rate constant of PDS decay in dark and under light) | PDS decayed ([1]; in dark) | PDS decayed ([1]; under visible light) [%] | ATZ degradation by PDS Light in presence of L-his ([2]; L-his 0.5 M) | effect of D2O on rate constant of ATZ degradation ([2]; PDS Dark) | pseudo-first-order rate constant for ATZ degradation in D2O relative to water ([2]; PDS Light) | pseudo-first-order rate constant kobs of ATZ degradation ([2]; PDS Light, anoxic condition (N2 purging), without scavengers) | ATZ degradation by PDS Light in presence of scavengers ([2]; all four scavengers (MeOH, TBA, L-his 0.5 M; SOD 50 U·ml^−1)) | ATZ degraded ([3]; PDS Dark, within 30 min) [%] | pseudo-first-order rate constant kobs of ATZ degradation ([3]; PDS Dark) | pseudo-first-order rate constants of ATZ degradation with UV filter versus without UV filter ([3]; PDS Light, UV filter film between lamp and vials) | degradation of ATZ ([3]; PDS Light, in 30 min) | pseudo-first-order rate constant kobs of ATZ degradation ([3]; PDS Light, oxic) | k(SO4^●−/ATZ) [4]
1 | O=S(=O)([O-])OOS(=O)(=O)[O-].[K+].[K+] [PDS, Potassium peroxydisulfate] | around 8.8±1.1×10^−3 min^−1 | Approximately 20% | ~90 | – | – | – | – | – | – | – | – | – | – | –
2 | CCNc1nc(Cl)nc(NC(C)C)n1 [ATZ, 2-chloro-4-ethylamino-6-isopropylamino-s-triazine] | – | – | – | almost completely inhibited | negligible | more than 2.5 times | 7.3±0.9×10^−2 min^−1 | significantly hindered | 37 | 0.72±0.09×10^−2 min^−1 | not statistically different | complete degradation | 11±3.0×10^−2 min^−1 | 2.6−4.2×10^9 M^−1·s^−1
